Measurements from patent publication US20150148551A1, “GENISTEIN FOR REDUCING LEVELS OF STORAGE COMPOUNDS IN THE TREATMENT AND/OR PREVENTION OF LYSOSOMAL STORAGE DISEASES (LSDS)” (3G THERAPEUTICS, INC., priority 2012, published 2015).

Legend:
[1] = test system: IDUA; test: DNA microarray, IDUA expression in fibroblasts exposed to genistein; type: cell-based, human; conditions: for IDUA fold change Average: 48 h vs DMSO
Description: (§1) The experiments were conducted to characterise the transcriptomic profile of human fibroblast cells exposed to genistein, and in particular to determine the expression of genes encoding lysosomal enzymes involved in metabolism (i.e. synthesis and degradation) of organic substances. The absence or deficiency of these enzymes' activity is responsible for occurrence of various lysosomal storage diseases (LSD) (including MPS). The tested hypothesis assumed that genistein influences the expression of many genes, among which there are genes coding for enzymes required in metabolism of compounds, which are pathologically stored in LSD. The results provide important information regarding genistein action on the molecular level within the range of gene expression modulation by this substance. The experiment was conducted in biological quintuplicates. Human dermal fibroblasts (HDFa) were exposed in vitro for 1, 24 or 48 hours to: 30, 60 or 100 μM of genistein; 0.05% DMSO (K1); or were untreated (control cells) (K2), and total RNA was isolated and analysed.
(§2) Fibroblast cells were grown in Dulbecco (DMEM) medium supplemented with 10% fetal bovine serum (FBS) with the addition of 1% antibiotics and anti-fungal agents at 37° C. in humidified atmosphere of 5% CO2, until the required confluency was obtained.
(§3) To determine the effect of tested compound on the transcriptom of the fibroblast cells, the growth medium was replaced with fresh medium, either non-supplemented (0.05% DMSO), or containing genistein (30, 60 or 100 μM, in 0.05% DMSO). The exposure was done for 1, 24 or 48 hours.
(§4) Total RNA was isolated from fibroblasts using High Pure RNA Isolation Kit according to the protocol and then it was quantitatively evaluated using Quant-It™ RiboGreen® Assay Kit.
(§5) Biotinylated cRNA was prepared using Ambion Total PrepAmp Kit for Illumina arrays.
(§6) Standard hybridization and quantitative image analysis procedures—Illumina hybridization protocol and Illumina scanning protocol, were used.
(§7) Processing of the results was done during data definition, including: background correction (using background subtraction method), normalization (using quantile normalization algorithm with Illumina GenomeStudio software package: gene expression module version 1.9.0) and summarization (using method, which sums the values of signal intensities from a set of probes).

[2] = test system: ST3GAL4; test: DNA microarray, ST3GAL4 expression in fibroblasts exposed to genistein; type: cell-based, human
Description: as §1, §2, §3, §4, §5, §6, §7

[3] = test system: MPS II and III; conditions: animal tests and pilot clinical trials; cited from earlier work
[4] = test system: AGA; test: DNA microarray, AGA expression in fibroblasts exposed to genistein; type: cell-based, human; conditions: for AGA fold change Average: 48 h vs DMSO
Description: as §1, §2, §3, §4, §5, §6, §7

[5] = test system: GNPTAB; test: DNA microarray, GNPTAB expression in fibroblasts exposed to genistein; type: cell-based, human; conditions: for GNPTAB fold change Average: 48 h vs DMSO
Description: as §1, §2, §3, §4, §5, §6, §7

[6] = humans and animals; cited from earlier work
[7] = test system: GAA; test: DNA microarray, GAA expression in fibroblasts exposed to genistein; type: cell-based, human; conditions: for GAA fold change Average: 48 h vs DMSO
Description: as §1, §2, §3, §4, §5, §6, §7

[8] = test system: ASAH1; test: DNA microarray, ASAH1 expression in fibroblasts exposed to genistein; type: cell-based, human; conditions: for ASAH1 fold change Average: 48 h vs DMSO
Description: as §1, §2, §3, §4, §5, §6, §7

[9] = test system: HYAL3; test: DNA microarray, HYAL3 expression in fibroblasts exposed to genistein; type: cell-based, human; conditions: for HYAL3 fold change Average: 48 h vs DMSO
Description: as §1, §2, §3, §4, §5, §6, §7

[10] = test system: Human dermal fibroblasts (HDFa); test: Transcriptomic profiling of fibroblasts with DNA microarrays, genes of synthesis and degradation; type: cell-based; conditions: cells cultured in the presence vs absence of genistein
Description: as §1, with “analysed. […]” for “analysed.”
Total RNA was isolated from fibroblasts using High Pure RNA Isolation Kit according to the protocol and then it was quantitatively evaluated using Quant-It™ RiboGreen® Assay Kit. […]
Standard hybridization and quantitative image analysis procedures—Illumina hybridization protocol and Illumina scanning protocol, were used. […]

O=c1c(-c2ccc(O)cc2)coc2cc(O)cc(O)c12 [genistein, 4′,5,7-trihydroxy-3-phenylchromen-4-one]
IDUA fold change Average 1h30/1hK1 ([1]; 30 μM, 1 h vs 0.05% DMSO): 0.8853 fold change | IDUA fold change Average ([1]; 30 μM): 1.1407 fold change | IDUA fold change Average 1h60/1hK1 ([1]; 60 μM, 1 h vs 0.05% DMSO): 0.9788 fold change | IDUA fold change Average ([1]; 60 μM): 1.212 fold change | IDUA fold change Average 1h100/1hK1 ([1]; 100 μM, 1 h vs 0.05% DMSO): 0.9034 fold change | IDUA fold change Average ([1]; 100 μM): 1.309 fold change | ST3GAL4 fold change Average 1h30/1hK1 ([2]; 30 μM, 1 h vs 0.05% DMSO): 0.9885 fold change | ST3GAL4 fold change Average 24h30/24hK1 ([2]; 30 μM, 24 h vs 0.05% DMSO): 0.782 fold change | ST3GAL4 fold change Average 48h30/48hK1 ([2]; 30 μM, 48 h vs 0.05% DMSO): 1.065 fold change | ST3GAL4 fold change Average 1h60/1hK1 ([2]; 60 μM, 1 h vs 0.05% DMSO): 0.9205 fold change | ST3GAL4 fold change Average 24h60/24hK1 ([2]; 60 μM, 24 h vs 0.05% DMSO): 0.9205 fold change | ST3GAL4 fold change Average 48h61/48hK1 ([2]; 60 μM, 48 h vs 0.05% DMSO): 0.9931 fold change | ST3GAL4 fold change Average 1h100/1hK1 ([2]; 100 μM, 1 h vs 0.05% DMSO): 0.8637 fold change | ST3GAL4 fold change Average 24h100/24hK1 ([2]; 100 μM, 24 h vs 0.05% DMSO): 0.6646 fold change | ST3GAL4 fold change Average 48h100/48hK1 ([2]; 100 μM, 48 h vs 0.05% DMSO): 0.8911 fold change | effectiveness in the treatment of MPS II and III [3]: promising effectiveness | AGA fold change Average 1h30/1hK1 ([4]; 30 μM, 1 h vs 0.05% DMSO): 1.0395 fold change | AGA fold change Average ([4]; 30 μM): 1.3732 fold change | AGA fold change Average 1h60/1hK1 ([4]; 60 μM, 1 h vs 0.05% DMSO): 0.9753 fold change | AGA fold change Average ([4]; 60 μM): 1.864 fold change | AGA fold change Average 1h100/1hK1 ([4]; 100 μM, 1 h vs 0.05% DMSO): 0.9749 fold change | AGA fold change Average ([4]; 100 μM): 2.33 fold change | GNPTAB fold change Average 1h30/1hK1 ([5]; 30 μM, 1 h vs 0.05% DMSO): 0.7878 fold change | GNPTAB fold change Average ([5]; 30 μM): 1.6393 fold change | GNPTAB fold change Average 1h60/1hK1 ([5]; 60 μM, 1 h vs 0.05% DMSO): 1.235 fold change | GNPTAB fold change Average 1h100/1hK1 ([5]; 100 μM, 1 h vs 0.05% DMSO): 0.8628 fold change | GNPTAB fold change Average ([5]; 100 μM): 1.872 fold change | tolerability [6]: well-tolerated | GAA fold change Average 1h30/1hK1 ([7]; 30 μM, 1 h vs 0.05% DMSO): 0.9686 fold change | GAA fold change Average 1h60/1hK1 ([7]; 60 μM, 1 h vs 0.05% DMSO): 1.087 fold change | GAA fold change Average ([7]; 60 μM): 1.763 fold change | GAA fold change Average 1h100/1hK1 ([7]; 100 μM, 1 h vs 0.05% DMSO): 0.935 fold change | GAA fold change Average ([7]; 100 μM): 1.955 fold change | ASAH1 fold change Average 1h30/1hK1 ([8]; 30 μM, 1 h vs 0.05% DMSO): 1.1419 fold change | ASAH1 fold change Average ([8]; 30 μM): 1.0802 fold change | ASAH1 fold change Average 1h60/1hK1 ([8]; 60 μM, 1 h vs 0.05% DMSO): 1.029 fold change | ASAH1 fold change Average ([8]; 60 μM): 1.412 fold change | ASAH1 fold change Average 1h100/1hK1 ([8]; 100 μM, 1 h vs 0.05% DMSO): 1.252 fold change | ASAH1 fold change Average ([8]; 100 μM): 1.52 fold change | HYAL3 fold change Average 1h30/1hK1 ([9]; 30 μM, 1 h vs 0.05% DMSO): 1.1887 fold change | HYAL3 fold change Average ([9]; 30 μM): 0.8605 fold change | HYAL3 fold change Average ([9]; 60 μM): 0.9492 fold change | HYAL3 fold change Average 1h100/1hK1 ([9]; 100 μM, 1 h vs 0.05% DMSO): 1.141 fold change | HYAL3 fold change Average ([9]; 100 μM): 1.001 fold change | expression of genes of degradation [10]: increased
